One block for each molecule: values may come before it.
Key:
[1] = Measurement of circular dichroism (mean residue ellipticity at 222 nm); format: physicochemical; conditions: insulinotropin as agent
Excerpt: In general, the structure of a polypeptide in an aqueous buffered solution is in constant flux between portions thereof being random coil and alpha-helix configurations. For the polypeptides used in the following examples, the predominant structure is a random coil since the alpha-helix configuration is unstable in the absence of bound surfactant. According to the present invention adding surfactant to an aqueous solution of a polypeptide stabilizes the alpha-helix configuration. Circular dichroism is a measurement of the amount of the alpha-helix configured polypeptide present in the solution. Thus, circular dichroism provides an indirect measurement of the degree of binding of the surfactant to the polypeptide. (See, for example, Epand R. M., Epand R. F., Orlowski R. C., Schuleter R. J., Boni L. T. and Hui S. W., Biochemistry 22, 5074-5084 (1983); Hui, S. W., Epand R. M., Dell K. R., Epand R. F. and Orlowski R. C., Biochimica Biophysica Acta 772, 264-272 (1984); Epand R. M., Epand R. F., and Orlowski R. C., International Journal Peptide Protein Research 25 105-111; Epand R. M., Epand R. F., Orlowski R. C., Seyler J. K. and Colescott R. L., Biochemistry 25, 1964-1968; Epand R. M., Seyler J. K. and Orlowski R. C., European Journal Biochemistry 159, 125-127 (1986); Wiersema P. H., Loeb A. L. and Overbeek, J., Colloid Interface Science 22, 78-99 (1966)).
The surfactant/peptide circular dichroism (CD) spectra were obtained in a 2 mm path-length cell (110-Q-2 Model, AVIV, Lakewood, N.J.) at 32° C. The cell was initially loaded with 0.60 mL of a solution containing about 0.25 mg/mL of the peptide in 10 mM sodium chloroacetate (pH 3.5) or 10 mM sodium borate (pH 9.0). The buffers were selected to minimize the effect of the temperature on the pH of the solution and to minimize light absorption, thereby optimizing the signal-to-noise ratio (SNR). The peptide concentration was determined by spectrophotometry, with log-log correction for light scattering. The surfactant concentration was increased step-wise by titration of concentrated surfactant stock directly into the CD cell, followed by eight inversions of the cell, with the air bubble providing the mixing turbulence. After mixing, the cell was placed into the AVIV 62 CD spectrometer (AVIV, Lakewood, N.J.). In order to approximate temperature and chemical equilibrium, the sample remained in the spectrometer 5 minutes before a reading was taken. The CD spectrum was taken using a band pass of 1 nm, a data interval of 1 nm, and a data averaging time of 10 seconds. The mean residue ellipticity is the ellipticity divided by the path length in cm times the amino acid residue concentration in decimoles/cm^3. See Methods in Enzymology, Vol 130, pp 208-269, Yang et al, "Calculation of Protein Conformation from Circular Dichroism" (1986).
(§1) The measurement procedures described above were conducted on an aqueous solution of the protein insulinotropin, with TWEEN® 20 (MW=1126 g/mol) as the surfactant, with the following modifications. The insulinotropin donor solution concentration was 0.12 mg/mL. One test was run in 10 mM sodium borate at pH 9.0 and another test in 10 mM sodium chloroacetate at pH 3.5.
(§2) Fractional changes (%δ) are defined as the difference between the reading at a given surfactant concentration (Ec) minus the reading at zero surfactant (E0), the quantity divided by the difference between the reading at saturated surfactant concentration (Es) minus the reading at zero surfactant (E0), i. e. %δ=(Ec -E0)/(Es-E0).
The measurement procedures described earlier were conducted on an aqueous solution of insulinotropin as the agent, and TWEEN® 40 (molecular weight 1282 g/mol) as the surfactant with the following changes. The insulinotropin concentration was initially 0.29 mg/mL, and 0.21 mg/mL after the final TWEEN® 40 addition and the temperature was held at 32° C. Two tests were conducted at two different concentrations of TWEEN® 40. […]

[2] = Hydrophobicity by hydrophobic interaction chromatography (HIC), phenyl Superose column (retention time, ta/tm); format: physicochemical; conditions: for HIC Retention Time (Phenyl Superose Col.): no surfactant
Method: The hydrophobicity of an agent (eg, an agent such as a polypeptide or protein in solution, as well as the relative increase or decrease thereof) is determined by passing the agent-containing solution through a chromatography column filled with a particular "hydrophobic interaction" bead material and measuring either (1) the time required for the agent to elute (ie, pass through) the column or (2) the volume of liquid (ie, the same liquid used in the agent-containing sample, but with the agent removed) required to be pumped through the column in order to elute the agent. For the purposes of the present invention, the hydrophobicity of an agent is defined in terms relative to the marker compound, N-acetyl tryptophanamide (sold by Sigma Chemical, St. Louis, Mo.), which has a somewhat moderate hydrophobicity. Hydrophobicity, as that term is used herein, is measured using a 5 mm diameter glass column having a length of 5 cm (ie, column volume of 1.0 mL) and packed with cross-linked agar beads having an average particle size of 13.5 μm. Examples of suitable hydrophobic bead materials include cross-linked agar gel beads (Superose 12) having hydrophobic ligands attached to the agar via chemically stable ether linkages ((Superose 12)--O--CH2 --CHOH--CH2 --O--R) such as alkyl-Superose wherein R is --CH2 --C(CH3)3 and phenyl-Superose wherein R is phenyl, both of which are sold in pre-packaged column form by Pharmacia Biotech, Inc. of Piscataway, N.J. Immediately downstream from the column is placed a flow cell which permits continuous UV absorbance measurements of the solution flowing out of the column. Suitable flow cells and UV absorbance detectors are sold by Perkin-Elmer Corp., Applied Biosystems, Foster City, Calif. Hydrophobicity measurements are conducted at 32° C. with the same buffer that is used in the electrotransport system which is used to deliver the agent (eg, transdermally) to the patient. The buffer strength used in the hydrophobicity measurements is 10 mM ionic strength. The term "certain hydrophobicity" as used herein, means that the time required for the agent to elute from the column, relative to the time required for N-acetyl tryptophanamide to elute, is as follows:
ta /tm >0.7, and preferably ta /tm >3
ta is the time at which the peak UV absorbance value is recorded for the beneficial agent in the flow cell, less the time required to initially fill the column with the agent-containing solution (ie, dead volume retention time); and
tm is the time at which the peak UV absorbance value is recorded for the N-acetyl tryptophanamide marker in the flow cell, less the time required to initially fill the column with the marker-containing solution (ie, dead volume retention time).
The above described measurement of agent hydrophobicity is substantially independent of column size and flow rate through the column.
One method of measuring the hydrophobicity of an agent such as a polypeptide or protein is by hydrophobic interaction chromatography (HIC). The principles and conditions associated with HIC are fully described in Protein Purification: Principles, High Resolution Methods, and Applications, Janson and Ryden, Eds., pp. 207-226 (1989), the pertinent portions of which are incorporated herein by reference. This method requires passing a composition through a hydrophobic interaction column and measuring the volume of solvent required for its complete elution. The hydrophobic sites on the agent are generally attracted to hydrophobic groups, such as aryl groups, affixed to beads placed within the column. A preferred HIC column material is phenyl-superose (Pharmacia, Sweden), a cross-linked polysaccharide which has been covalently modified to have pendant hydrophobic aryl groups. These pendant groups are similar to the hydrophobic or lipophilic species in the skin layers. Thus, this hydrophobic interaction column approximates, and is a good in vitro model for, an animal's skin layer as a barrier to transport of a polypeptide or protein. […]

[3] = Electrophoretic mobility by capillary zone electrophoresis; format: physicochemical; conditions: no surfactant
Method: Since electrophoretic mobility (ie, the ability of a drug/agent to migrate in an electric field) is an important aspect of electrotransport drug delivery, the electrophoretic mobility of the drug/agent being delivered is predictive of suitability for transdermal electrotransport delivery. Electrophoretic mobility measurements were performed using a capillary zone electrophoresis instrument (model 2100 P/ACE instrument, Beckman Instruments, Inc., Palo Alto, Calif.). At acid pH values DB-WAX, DB-1, DB-17 (J&W Scientific, Folsom, Calif.) capillary columns were used either with 50 or 100 micron internal diameter column and CElect H75 (Supelco, Bellefonte, Pa.) capillary column with a 75 micron internal diameter. At alkaline pH values uncoated silica capillaries of length 57 cm with an internal diameter of 75 microns were used with an applied voltage of 20 kV. If any electroosmotic flow was present, it was detected using a neutral marker such as 0.01% benzyl alcohol (SIGMA, St. Louis, Mo.) or 1/500 mesityl oxide (Applied Biosystems, Foster City, Calif.). The optimum voltage was determined by doing an Ohm's Law test on each buffer and capillary system. The temperature of the capillary columns was set at 32° C. and a two second pressure injection was done. A UV detector was used to monitor peptide and markers at either 214 or 280 nm.
Voltage injection had to be used for the 27 cm length column. The voltage applied varied depending on the capillary length.
The following equation was used to determine electrophoretic mobility μ. [formula]
If the electroosmotic flow is detected, the following equation can be used.
μpeptide =μtotal -μneutral marker
as §1, §2
The measurement procedures described earlier were conducted in this example on an aqueous solution containing insulinotropin as the agent and dodecyl trimethyl ammonium chloride (DTAC) as the ionic surfactant with the following modifications. […]
The same measurement procedures were conducted using an aqueous solution of salmon calcitonin as the agent and the zwitterionic dodecyl sulfobetaine as the surfactant with the following modifications. The temperature was initially 32° C., the surfactant concentration was varied up to 30 mM, and the calcitonin concentration was 0.06 to 0.08 mM. Tables 7, 8, and 9 below provide the results obtained in terms of polypeptide ellipticity expressed as a function of zwitterionic surfactant concentration at pH 3.5 in 12 mM sodium chloroacetate (Table 7), 5.0 in 4 mM piperazine HCI (Table 8), and 6.5 in 15 mM sodium cacodylate (Table 9), respectively. Table 8, in addition, provides the results obtained on electrophoretic mobility and HIC retention time in a phenyl superose column at pH 5.0.

[4] = pH 6.5
Method: A. Preparation of Human Skin Samples
Human cadaver skin was prepared by first removing about 1 mm thick skin samples in the form of strips. The skin strips were placed in polyethylene bags, sealed and placed in a refrigerator at about 4° C. for temporary storage. Prior to use in the electrotransport cell, the skin strips were placed in one-liter beakers containing water at 60° C. for about 90 seconds with gentle stirring. Then, the skin strips were removed and placed onto the absorbent side of a piece of BENCHKOTE™ material with the dermis side down. Using flat tipped tweezers to retain the dermis, the epidermis was removed from each strip with a round-tip spatula. Each epidermis, stratum corneum side up, was transferred to a PYREX™ glass tray filled with water. Each floating epidermis was stretched essentially flat. After removal from the water 2.22 cm (7/8 in) diameter disks of each epidermis were punched out of areas having negligible surface damage. The discs were stored at 4° C. in a sealed container with water droplets to maintain their moisture.
B. Set-up of Electrotransport Cell and Composition […]
The solution concentration of the polypeptide in the donor compartment 44 was, unless otherwise specified, 1 mM. […] The polypeptide flux was determined by periodic sampling of the solution in the receptor compartment 46. […]

Molecule: CCCCCCCCCCCC[N+](C)(C)C.[Cl-] [DTAC, dodecyl trimethyl ammonium chloride, reference compound]
- surfactant concentration at which an ellipticity of -9000 occurs [1]: about 3.0 mM

Molecule: Cytochrome C: protein, molecular weight 12,400 g/mol
- HIC Retention Time (Phenyl Superose Col.) [2]: 2.0 min
- Electrophoretic Mobility [3]: 2.5 × 10^-4 cm^2 /V-s

- ta /tm ([2]; 10 mM HIS buffer, pH 7.0): 0.6
- ta /tm ([2]; HIS buffer, pH 7.2): 0.5
- ta /tm ([2]; pH 6.5 (10 mM histidine), no enhancer): 0.8
- ta /tm ([2]; pH 6.5 (10 mM histidine), no enhancer, listed as decapeptide): about 0.8
- ta /tm ([2]; pH 6.5, with 3 mM Tween 20): 0.9
- in vitro Skin Flux [4]: l.3 μg/cm^2 -hr
Molecule: D-Glu-D-Tyr-D-Leu-D-Lys-D-Ata-D-Leu-D-Leu-D-Ser-D-Lys-D-Leu-NH2 [Model Decapeptide, reference compound]

Molecule: Lysozyme: protein, molecular weight 14,315 g/mol
- HIC Retention Time (Phenyl Superose Col.) [2]: 24.0 min
- Electrophoretic Mobility [3]: 2.4 × 10^-4 cm^2 /V-s

B1: Ribonuclease: protein, molecular weight 13,686 g/mol (protein, UniProt P61823 27-150, looked up)
Ribonuclease pancreatic: KETAAAKFERQHMDSSTSAASSSNYCNQMMKSRNLTKDRCKPVNTFVHESLADVQAVCSQKNVACKNGQTNCYQSYSTMSITDCRETGSSKYPNCAYKTTQANKHIIVACEGNPYVPVHFDASV
- HIC Retention Time (Phenyl Superose Col.) [2]: 12.1 min
- Electrophoretic Mobility [3]: 1.9 × 10^-4 cm^2 /V-s
